{
  "source": "PubChem BioAssay AID2060904",
  "about": "(Molecular Pharmacology Branch, DTP, NCI, 2025)",
  "tested_on": "349418-098-R-PDC complex spheroid viability",
  "test": "Anticancer human tumor 349418-098-R-PDC patient-derived lung adenocarcinoma cell line growth inhibition [RAS]",
  "conditions": "for IC50: curve of first compound; for viability, T/C: stronger effect = lower value",
  "procedure,_shortened": "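Tumour cells grown as complex spheroids with HUVEC endothelial cells and mesenchymal stem cells, treated with RAS pathway inhibitor combinations. Each agent spans half-log steps from near clinical Cmax, or 10 microM where Cmax is unknown.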",
  "key": {"[1]": {"conditions": "second compound 0.00316 µM, first compound 0.0316 µM"}, "[2]": {"conditions": "second compound 0.00316 µM, first compound 0.1 µM"}, "[3]": {"conditions": "second compound 0.01 µM, first compound 0.0316 µM"}, "[4]": {"conditions": "second compound 0.01 µM, first compound 0.1 µM"}, "[5]": {"conditions": "second compound 0.0316 µM, first compound 0.0316 µM"}, "[6]": {"conditions": "second compound 0.0316 µM, first compound 0.1 µM"}, "[7]": {"conditions": "second compound 0.1 µM, first compound 0.0316 µM"}, "[8]": {"conditions": "second compound 0.1 µM, first compound 0.1 µM"}, "[9]": {"conditions": "second compound 0.316 µM, first compound 0.0316 µM"}, "[10]": {"conditions": "second compound 0.316 µM, first compound 0.1 µM"}, "[11]": {"conditions": "second compound 1 µM, first compound 0.0316 µM"}, "[12]": {"conditions": "second compound 1 µM, first compound 0.1 µM"}},
  "data": [
    {"compound": "CC(C)n1nc(-c2ccc3oc(N)nc3c2)c2c(N)ncnc21", "note": "+ C=CC(=O)N1CCN(c2nc(OCC3CCCN3C)nc3c(F)c(-c4nc(N)cc(C)c4C(F)(F)F)c(Cl)cc23)C(C)C1;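 further: spheroids exposed to compound for seven days before viability readout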", "values": [
      {"measurement": "IC50", "setting": "second compound 0.00316 µM", "result": 5.33, "unit": "nM"},
      {"measurement": "IC50", "setting": "second compound 0.01 µM", "result": 3.53, "unit": "nM"},
      {"measurement": "IC50", "setting": "second compound 0.0316 µM", "result": 3.24, "unit": "nM"},
      {"measurement": "IC50", "setting": "second compound 0.1 µM", "result": 3.99, "unit": "nM"},
      {"measurement": "IC50", "setting": "second compound 0.316 µM", "result": 3.07, "unit": "nM"},
      {"measurement": "IC50", "setting": "second compound 1 µM", "result": 3.64, "unit": "nM"},
      {"measurement": "viability, T/C", "setting": "second compound 0.00316 µM, first compound 0.000316 µM", "result": 85.2, "unit": "%"},
      {"measurement": "viability, T/C", "setting": "second compound 0.00316 µM, first compound 0.001 µM", "result": 90.4, "unit": "%"},
      {"measurement": "viability, T/C", "setting": "second compound 0.00316 µM, first compound 0.00316 µM", "result": 72.3, "unit": "%"},
      {"measurement": "viability, T/C", "setting": "second compound 0.00316 µM, first compound 0.01 µM", "result": 22.8, "unit": "%"},
      {"measurement": "viability, T/C", "setting": "[1]", "result": 8.58, "unit": "%"},
      {"measurement": "viability, T/C", "setting": "[2]", "result": 6.85, "unit": "%"},
      {"measurement": "viability, T/C", "setting": "second compound 0.01 µM, first compound 0.000316 µM", "result": 79.3, "unit": "%"},
      {"measurement": "viability, T/C", "setting": "second compound 0.01 µM, first compound 0.001 µM", "result": 124, "unit": "%"},
      {"measurement": "viability, T/C", "setting": "second compound 0.01 µM, first compound 0.00316 µM", "result": 54.2, "unit": "%"},
      {"measurement": "viability, T/C", "setting": "second compound 0.01 µM, first compound 0.01 µM", "result": 15.6, "unit": "%"},
      {"measurement": "viability, T/C", "setting": "[3]", "result": 7.53, "unit": "%"},
      {"measurement": "viability, T/C", "setting": "[4]", "result": 7.07, "unit": "%"},
      {"measurement": "viability, T/C", "setting": "second compound 0.0316 µM, first compound 0.000316 µM", "result": 76.6, "unit": "%"},
      {"measurement": "viability, T/C", "setting": "second compound 0.0316 µM, first compound 0.001 µM", "result": 115, "unit": "%"},
      {"measurement": "viability, T/C", "setting": "second compound 0.0316 µM, first compound 0.00316 µM", "result": 50.9, "unit": "%"},
      {"measurement": "viability, T/C", "setting": "second compound 0.0316 µM, first compound 0.01 µM", "result": 14.1, "unit": "%"},
      {"measurement": "viability, T/C", "setting": "[5]", "result": 8.15, "unit": "%"},
      {"measurement": "viability, T/C", "setting": "[6]", "result": 5.8, "unit": "%"},
      {"measurement": "viability, T/C", "setting": "second compound 0.1 µM, first compound 0.000316 µM", "result": 52.8, "unit": "%"},
      {"measurement": "viability, T/C", "setting": "second compound 0.1 µM, first compound 0.001 µM", "result": 98.9, "unit": "%"},
      {"measurement": "viability, T/C", "setting": "second compound 0.1 µM, first compound 0.00316 µM", "result": 58.2, "unit": "%"},
      {"measurement": "viability, T/C", "setting": "second compound 0.1 µM, first compound 0.01 µM", "result": 14.5, "unit": "%"},
      {"measurement": "viability, T/C", "setting": "[7]", "result": 8.94, "unit": "%"},
      {"measurement": "viability, T/C", "setting": "[8]", "result": 5.94, "unit": "%"},
      {"measurement": "viability, T/C", "setting": "second compound 0.316 µM, first compound 0.000316 µM", "result": 63.4, "unit": "%"},
      {"measurement": "viability, T/C", "setting": "second compound 0.316 µM, first compound 0.001 µM", "result": 90.8, "unit": "%"},
      {"measurement": "viability, T/C", "setting": "second compound 0.316 µM, first compound 0.00316 µM", "result": 49.3, "unit": "%"},
      {"measurement": "viability, T/C", "setting": "second compound 0.316 µM, first compound 0.01 µM", "result": 14, "unit": "%"},
      {"measurement": "viability, T/C", "setting": "[9]", "result": 8.74, "unit": "%"},
      {"measurement": "viability, T/C", "setting": "[10]", "result": 6.6, "unit": "%"},
      {"measurement": "viability, T/C", "setting": "second compound 1 µM, first compound 0.000316 µM", "result": 57.6, "unit": "%"},
      {"measurement": "viability, T/C", "setting": "second compound 1 µM, first compound 0.001 µM", "result": 79.6, "unit": "%"},
      {"measurement": "viability, T/C", "setting": "second compound 1 µM, first compound 0.00316 µM", "result": 53.8, "unit": "%"},
      {"measurement": "viability, T/C", "setting": "second compound 1 µM, first compound 0.01 µM", "result": 15.2, "unit": "%"},
      {"measurement": "viability, T/C", "setting": "[11]", "result": 8.85, "unit": "%"},
      {"measurement": "viability, T/C", "setting": "[12]", "result": 5.88, "unit": "%"}
    ]},
    {"compound": "C[C@@H](NC(=O)c1ncnc(N)c1Cl)c1ncc(C(=O)Nc2cc(C(F)(F)F)c(Cl)cn2)s1", "note": "+ C=CC(=O)N1CCN(c2nc(OCC3CCCN3C)nc3c(F)c(-c4nc(N)cc(C)c4C(F)(F)F)c(Cl)cc23)C(C)C1", "values": [
      {"measurement": "IC50", "setting": "second compound 0.00316 µM", "result": 954, "unit": "nM"},
      {"measurement": "IC50", "setting": "second compound 0.01 µM", "result": 1510, "unit": "nM"},
      {"measurement": "IC50", "setting": "second compound 0.0316 µM", "result": 2040, "unit": "nM"},
      {"measurement": "IC50", "setting": "second compound 0.1 µM", "result": 2180, "unit": "nM"},
      {"measurement": "IC50", "setting": "second compound 0.316 µM", "result": 3120, "unit": "nM"},
      {"measurement": "IC50", "setting": "second compound 1 µM", "result": 3860, "unit": "nM"},
      {"measurement": "viability, T/C", "setting": "[1]", "result": 102, "unit": "%"},
      {"measurement": "viability, T/C", "setting": "[2]", "result": 124, "unit": "%"},
      {"measurement": "viability, T/C", "setting": "second compound 0.00316 µM, first compound 0.316 µM", "result": 88.9, "unit": "%"},
      {"measurement": "viability, T/C", "setting": "second compound 0.00316 µM, first compound 1 µM", "result": 50, "unit": "%"},
      {"measurement": "viability, T/C", "setting": "second compound 0.00316 µM, first compound 3.16 µM", "result": 39, "unit": "%"},
      {"measurement": "viability, T/C", "setting": "second compound 0.00316 µM, first compound 10 µM", "result": 32.6, "unit": "%"},
      {"measurement": "viability, T/C", "setting": "[3]", "result": 78.6, "unit": "%"},
      {"measurement": "viability, T/C", "setting": "[4]", "result": 115, "unit": "%"},
      {"measurement": "viability, T/C", "setting": "second compound 0.01 µM, first compound 0.316 µM", "result": 68.8, "unit": "%"},
      {"measurement": "viability, T/C", "setting": "second compound 0.01 µM, first compound 1 µM", "result": 59.1, "unit": "%"},
      {"measurement": "viability, T/C", "setting": "second compound 0.01 µM, first compound 3.16 µM", "result": 41.3, "unit": "%"},
      {"measurement": "viability, T/C", "setting": "second compound 0.01 µM, first compound 10 µM", "result": 31.3, "unit": "%"},
      {"measurement": "viability, T/C", "setting": "[5]", "result": 108, "unit": "%"},
      {"measurement": "viability, T/C", "setting": "[6]", "result": 113, "unit": "%"},
      {"measurement": "viability, T/C", "setting": "second compound 0.0316 µM, first compound 0.316 µM", "result": 65.1, "unit": "%"},
      {"measurement": "viability, T/C", "setting": "second compound 0.0316 µM, first compound 1 µM", "result": 62.8, "unit": "%"},
      {"measurement": "viability, T/C", "setting": "second compound 0.0316 µM, first compound 3.16 µM", "result": 50.1, "unit": "%"},
      {"measurement": "viability, T/C", "setting": "second compound 0.0316 µM, first compound 10 µM", "result": 29.6, "unit": "%"},
      {"measurement": "viability, T/C", "setting": "[7]", "result": 80.6, "unit": "%"},
      {"measurement": "viability, T/C", "setting": "[8]", "result": 106, "unit": "%"},
      {"measurement": "viability, T/C", "setting": "second compound 0.1 µM, first compound 0.316 µM", "result": 85.3, "unit": "%"},
      {"measurement": "viability, T/C", "setting": "second compound 0.1 µM, first compound 1 µM", "result": 60.9, "unit": "%"},
      {"measurement": "viability, T/C", "setting": "second compound 0.1 µM, first compound 3.16 µM", "result": 46.8, "unit": "%"},
      {"measurement": "viability, T/C", "setting": "second compound 0.1 µM, first compound 10 µM", "result": 41, "unit": "%"},
      {"measurement": "viability, T/C", "setting": "[9]", "result": 60.6, "unit": "%"},
      {"measurement": "viability, T/C", "setting": "[10]", "result": 113, "unit": "%"},
      {"measurement": "viability, T/C", "setting": "second compound 0.316 µM, first compound 0.316 µM", "result": 85.7, "unit": "%"},
      {"measurement": "viability, T/C", "setting": "second compound 0.316 µM, first compound 1 µM", "result": 67.1, "unit": "%"},
      {"measurement": "viability, T/C", "setting": "second compound 0.316 µM, first compound 3.16 µM", "result": 52.8, "unit": "%"},
      {"measurement": "viability, T/C", "setting": "second compound 0.316 µM, first compound 10 µM", "result": 31.2, "unit": "%"},
      {"measurement": "viability, T/C", "setting": "[11]", "result": 65.5, "unit": "%"},
      {"measurement": "viability, T/C", "setting": "[12]", "result": 111, "unit": "%"},
      {"measurement": "viability, T/C", "setting": "second compound 1 µM, first compound 0.316 µM", "result": 84.2, "unit": "%"},
      {"measurement": "viability, T/C", "setting": "second compound 1 µM, first compound 1 µM", "result": 64.1, "unit": "%"},
      {"measurement": "viability, T/C", "setting": "second compound 1 µM, first compound 3.16 µM", "result": 58.4, "unit": "%"},
      {"measurement": "viability, T/C", "setting": "second compound 1 µM, first compound 10 µM", "result": 30, "unit": "%"}
    ]}
  ]
}
